Measurements: US20250388568A1, “NLRP3 INHIBITORS” (Kodiak Sciences Inc., priority 2022, published 2025)

What was measured:
[1] = system: IL-1β release in THP-1-ASC-GFP cells after NLRP3 activation; test: IC50 determination of IL-1β release inhibition in THP-1-ASC-GFP cells; assay type: cell-based; conditions: THP1-ASC-GFP; THP-1-ASC-GFP cells, LPS priming 4 h, nigericin; average of at least three experiments; read-out: IL-1β IC50 (nM) THP1 cells
How it was run: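 THP-1-ASC-GFP cells were primed with 1 μg/mL LPS for 4 h, pretreated with compound for 30 min, then stimulated with nigericin plus compound for 1 h. Secreted IL-1β in supernatants was quantified by MSD electrochemiluminescence immunoassay. IC50 values were calculated from the measured IL-1β concentrations.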

[2] = system: IL-1β release in U937 cells after NLRP3 activation; test: IC50 determination of IL-1β release inhibition in U937 cells; assay type: cell-based; conditions: Homo sapiens, U-937; PMA-differentiated U937 cells, LPS priming 5 h, nigericin; average of at least three experiments; read-out: IL-1β IC50 (nM) U937 cells
How it was run: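 PMA-differentiated U937 cells (90 h) were primed 5 h with 1 μg/mL LPS, pre-incubated 30 min with compound, then stimulated with nigericin for 1 h. Supernatant IL-1β was quantified by MSD electrochemiluminescence. IC50 was derived from IL-1β concentration, with duplicate wells per compound.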

| IC50 [1] | IC50 [2] | SMILES |
| --- | --- | --- |
| < 5 nM | 5 to 50 nM | CC(C)(O)c1cc(S(=O)(=O)NC(=O)Nc2c3c(c(F)c4c2CCC4)CCC3)oc1COC1CNC1 [Example 71, 5-((azetidin-3-yloxy)methyl)-N-((8-fluoro-1,2,3,5,6,7-hexahydro-s-indacen-4-yl)carbamoyl)-4-(2-hydroxypropan-2-yl)furan-2-sulfonamide] |
| 5 to 50 nM | 50 to 500 nM | Cc1oc(S(=O)(=O)NC(=O)Nc2c3c(c(F)c4c2CCC4)CCC3)cc1CN1C[C@@H](O)[C@@H](F)C1 [Example 42, N-((8-fluoro-1,2,3,5,6,7-hexahydro-s-indacen-4-yl)carbamoyl)-4-(((3S,4R)-3-fluoro-4-hydroxypyrrolidin-1-yl)methyl)-5-methylfuran-2-sulfonamide] |
